According to patent US12036237B2, “Bromide source for use in treating autism spectral disorder” (INSERM (INSTITUT NATIONAL DE LA SANTE ET DE LA RECHERCHE …, priority 2016, dated 2024):
“Also recorded” adds a separate entry of the source.

Legend:
Oprm1−/− mice [1] = experiment: Locomotor activity by videotracking; type: in vivo; details: Example 2; for locomotor activity after bromide administration: 250 and 500 mg/kg
Description: (§1) Sodium bromide (anhydrous, Sigma-Aldrich, Saint-Quentin, France) dissolved in saline solution (NaCl, 0.9%) at the dose of 250 or 500 mg/kg, or vehicle (NaCl, 0.9%), was administered intraperitoneally once a day for 19 days in a volume of 20 ml/kg. On testing days, bromide was administered 30 min before behavioural assays. Bumetanide (Tocris, provided by Bio-Techne, Lille, France) dissolved in NaCl 0.9% at the dose of 0.5 mg/kg (Deidda et al, 2015) or vehicle was administered intraperitoneally once a day for 19 days in a volume of 20 ml/kg.
Locomotor activity. Locomotor activity was assessed in clear cages (21×11×17 cm) placed over a white Plexiglas infrared-lit platform. Light intensity of the room was set at 15 lx. The trajectories of the mice were analyzed and recorded via an automated tracking system equipped with an infrared-sensitive camera (Videotrack; View Point, Lyon, France). To focus on forward activity, only movements which speed was over 6 cm/s were taken into account for the measure of locomotor activity. Behavioral testing started when the animals were placed in the activity boxes for a 30 min-habituation period. They were then injected with either vehicle or sodium bromide (250 or 500 mg/kg) and locomotor activity was monitored for further 90 min.

Oprm1−/− mice [2] = experiment: Direct social interaction test
Oprm1−/− mice [3] = experiment: Motor stereotypies scoring
Oprm1−/− mice [4] = experiment: Three-chamber social novelty preference test; details: bromide 125, 250, 500 mg/kg i.p. daily vs saline
Fmr1−/− mice [5] = experiment: Marble burying test; type: in vivo; details: Fmr1−/− and Fmr1+/+ mice; bromide 250 mg/kg i.p. daily
Description: as §1
(§2) Behavioural assays started after a week of daily bromide (or bumetanide) treatment.

Fmr1−/− mice [6] = experiment: Direct social interaction test; type: in vivo
Description: as §1, §2
(§3) Direct social interaction.

Shank3B−/− mice [7] = experiment: Direct social interaction test; type: in vivo
Description: as §1, §2, §3

Fmr1−/− mice [8] = experiment: Three-chamber social novelty preference test; type: in vivo; details: bromide 250 mg/kg i.p. daily
Description: as §1, §2
Three-chamber social novelty preference test.

Fmr1−/− mice [9] = experiment: Y-maze exploration; type: in vivo; details: bromide 250 mg/kg i.p. daily
Description: as §1, §2

Shank3B−/− mice [10] = experiment: Y-maze exploration; type: in vivo; details: bromide 250 mg/kg i.p. daily
Description: as §1, §2

[11] = literature statement (Romermann et al, 2017); cited from earlier work
Fmr1−/− mice [12] = experiment: Novelty-suppressed feeding test; type: in vivo; details: bromide 250 mg/kg i.p. daily
Description: as §1, §2
(§4) Novelty-suppressed feeding. […] Immediately after an eating event, the mouse was transferred back to the home cage (free from cage-mates) and allowed to feed on lab chow for 5 min.

Shank3B−/− mice [13] = experiment: Novelty-suppressed feeding test; type: in vivo; details: bromide 250 mg/kg i.p. daily
Description: as §1, §2, §4

Oprm1−/− mice [14] = experiment: Y-maze exploration
Oprm1−/− mice [15] = experiment: Marble burying test; details: bromide 125, 250, 500 mg/kg i.p. daily
[16] = Example 2, Oprm1−/− mice, bromide 250, 500 mg/kg
[17] = Example 2, Oprm1−/− mice, bromide 250, 500 mg/kg i.p. daily
[18] = Example 2, male and female Oprm1−/− mice, bromide 250, 500 mg/kg
[19] = Oprm1−/− mice, bromide 125, 250, 500 mg/kg i.p. daily vs saline
[20] = Oprm1−/− mice, bumetanide 0.5 mg/kg
[21] = Example 2, Oprm1 wild-type and mutants, bromide 250, 500 mg/kg
[22] = Example 2, Oprm1 wild-type and mutants, bromide 250, 500 mg/kg, listed as Bromide
[23] = Example 2, bromide 250, 500 mg/kg
[24] = Oprm1−/− and wild-type, bromide 125, 250, 500 mg/kg i.p. daily
[25] = Oprm1−/− mice, bromide 125, 250, 500 mg/kg i.p. daily
[26] = all animals, bromide 125, 250, 500 mg/kg i.p. daily
[27] = social interaction and three-chamber tests, bromide 250 mg/kg

## [Br-].[Na+] [bromide, Sodium bromide]
Oprm1−/− mice [1]; chronically treated animals, males since 250 mg/kg, females only at 500 mg/kg
  locomotor activity during the habituation run: higher
Oprm1−/− mice [1]; controls (wild-type)
  locomotor activity after bromide administration: not modified in controls at 250 mg/kg and was increased at 500 mg/kg; also recorded: at the dose of 500 mg/kg only
Oprm1−/− mice [1]; mice, bromide 250 mg/kg, males more sensitive
  locomotor activity (overall): increases
Oprm1−/− mice [1]; mutant (KO) animals
  locomotor activity after bromide administration: increased in mutant animals at the dose of 250 mg/kg, but not at 500 mg/kg; also recorded: increased activity
Oprm1−/− mice [2]; Example 2, FIG. 13A, male mutants, both doses
  number of nose contacts and following episodes: increased
Oprm1−/− mice [2]; Example 2, FIG. 13A, male wild-type and knockout mice
  total amount of time spent in social contact: increased
Oprm1−/− mice [2]; Example 2, FIG. 13B, female mutant mice only, dose dependent
  total time in social contact, number of nose contacts and following episodes: increased
Oprm1−/− mice [2]; Example 2, Oprm1 null mice, bromide 250 mg/kg, more in males than females
  number of rearing episodes (activity): increased
Oprm1−/− mice [2]; [16]
  social interaction (overall): able to restore social interaction
Oprm1−/− mice [2]; [17]
  number of following episodes: increasing
  number, time spent in and duration of nose and paw contacts: increasing
  time spent in close contact: increasing
Oprm1−/− mice [2]; Example 2, Oprm1−/− mice, effects since 250 mg/kg in males, only at the highest dose in females
  gender influence on the increase of social interaction parameters: more significantly in males than in females
Oprm1−/− mice [2]; [18]
  duration of grooming episodes: reduced
  number of grooming episodes: reduced
  number of grooming episodes occurring immediately after a close contact: reduced
  time spent grooming: reduced
Oprm1−/− mice [2]; [19]
  direct social interaction (overall): can restore direct social interaction; also recorded: significantly improved social interaction; also recorded: increased direct social interaction
  number of following episodes: dose-dependently increasing; also recorded: increased
  number of grooming episodes: reduced
  number of grooming episodes occurring immediately after a social contact: reduced
  number, time spent in and duration of nose and paw contacts: dose-dependently increasing; also recorded: increased
  total time spent in social contact: dose-dependently increasing; also recorded: increased
Oprm1−/− mice [2]; Oprm1−/− mice, bromide 250 and 500 mg/kg i.p. daily
  efficiency on social interaction parameters in male compared with female mice: more efficient in increasing social interaction parameters
Oprm1−/− mice [2]; [20]
  increases in social contact time, nose contacts, following episodes and paw contacts, bromide compared with bumetanide: bigger increases
  suppressive effects on grooming episodes incl. those after a social contact, bromide compared with bumetanide: comparable
Oprm1−/− mice [2]; Oprm1−/− mice, social interaction and three-chamber tests, bumetanide at 0.5 mg/kg, 0.5 mg/kg
  beneficial effects on sociability, bromide compared with bumetanide: more significant; also recorded: superior efficacy
Oprm1−/− mice [3]; [21]
  number of grooming episodes: increased grooming episodes in wild-type (WT) animals without effects in mu opioid receptor knockouts
  number of head shakes: increased the number of head shakes in control mice to the level of mutants
Oprm1−/− mice [3]; [22]
  number of grooming episodes: increased the number of grooming episodes and male and female wild-type mice, but not in mutants
  number of head shakes: increased the number of head shakes in male and female wild-type mice, not in mutants
Oprm1−/− mice [3]; [16]
  motor stereotypies (overall): little effect
Oprm1−/− mice [3]; Example 2, all treated animals, bromide 250, 500 mg/kg
  time spent burying: decreased
Oprm1−/− mice [3]; [23]
  circling behavior: little effect
  number of burying episodes and their duration: did not modify
Oprm1−/− mice [3]; Example 2, bromide 250, 500 mg/kg, listed as Bromide
  circling behavior: no effect
Oprm1−/− mice [3]; Example 2, males since 250 mg/kg, females at 500 mg/kg only
  number of rearing episodes: increased the number of rearing episodes in wild-type and not knockout animals
Oprm1−/− mice [3]; [24]
  number of grooming episodes: dose-dependently increased the number of grooming episodes, but in wild-type animals only; also recorded: increased grooming occurrence in wild-type animals only
Oprm1−/− mice [3]; [25]
  motor stereotypies (shakes and circling), overall: efficiently reduce; also recorded: demonstrated efficacy in reducing; also recorded: significant decrease
  number of circling episodes: normalized
Oprm1−/− mice [3]; Oprm1−/− mice, bromide 125, 250, 500 mg/kg i.p. daily, listed as Bromide
  number of circling episodes: decreased
Oprm1−/− mice [3]; Oprm1−/− mutant mice, bromide 125, 250, 500 mg/kg i.p. daily
  number of shakes: reduced their occurrence
Oprm1−/− mice [3]; Oprm1−/− mutant mice, bromide 125, 250, 500 mg/kg i.p. daily, listed as Bromide
  number of shakes: decreased
Oprm1−/− mice [3]; all animals (Oprm1−/− and wild-type), bromide 125, 250, 500 mg/kg i.p. daily
  number of rearing episodes: increased
Oprm1−/− mice [3]; [26]
  number of burying episodes: dose-dependently reduced; also recorded: dose dependently reduced
  time spent burying: dose-dependently reduced
Oprm1−/− mice [3]; wild-type (Oprm1+/+) mice, bromide 125, 250, 500 mg/kg i.p. daily
  number of shakes: dose-dependently increased
Oprm1−/− mice [3]; wild-type (Oprm1+/+) mice, bromide 125, 250, 500 mg/kg i.p. daily, listed as Bromide
  number of shakes: increased
Oprm1−/− mice [4]
  difference (mouse over toy) in nose (close) contact duration: restored difference
  difference (mouse over toy) in number of nose (close) contacts: restored difference
  difference (mouse over toy) in time spent in nose (close) contact: restored difference
  difference (preference for the mouse over the toy) in time spent in compartments: restored difference
  social preference (overall): restored social preference; also recorded: increased social preference; also recorded: restored preference for the living mouse over the toy
Fmr1−/− mice [5]
  number of marbles buried: reduced
Fmr1−/− mice [6]; bromide 250 mg/kg i.p. daily
  number of following episodes: normalized
  number of grooming episodes: reduced
  number of grooming episodes occurring after a social contact: reduced
  number of, time spent in and duration of paw contacts: normalized
  time spent in nose contact and duration of nose contacts: normalized
  time spent in social contact: normalized
Fmr1−/− mice [6]; [27]
  sociability parameters (overall): efficiently restores
Shank3B−/− mice [7]; bromide 250 mg/kg i.p. daily
  number of following episodes: restored to wild-type levels; also recorded: reduced
  number of grooming episodes: reduced
  number of grooming episodes occurring after a social contact: reduced
  number of, time spent in and duration of paw contacts: restored to wild-type levels; also recorded: reduced
  time spent in nose contact, number and duration of nose contacts: restored to wild-type levels; also recorded: reduced
Shank3B−/− mice [7]; [27]
  sociability parameters (overall): efficiently restores
Fmr1−/− mice [8]; Fmr1 knockout or wild-type
  number of close contacts with the mouse: no significant effect
  preferential time spent in the compartment with the mouse: no significant effect
Fmr1−/− mice [8]; Fmr1−/− mice
  duration of close contacts with the mouse versus the toy: increased; also recorded: restored
  preference in time spent in close contact with the mouse versus the toy: increased; also recorded: restored
Fmr1−/− mice [9]
  perseverative same arm returns (cognitive stereotypies): efficiently reduced; also recorded: relieves; also recorded: suppressed
Shank3B−/− mice [10]; Shank3B line
  rate of alternate arm returns: not modified
Shank3B−/− mice [10]; Shank3B−/− mice
  perseverative same arm returns (cognitive stereotypies): normalized; also recorded: relieves; also recorded: suppressed
  rate of spontaneous alternation: rescued
[11]
  ability to cross the blood brain barrier: easily cross this barrier
Fmr1−/− mice [12]; Fmr1 line
  food intake back in the home cage: did not modify
Fmr1−/− mice [12]; Fmr1−/− mice
  exacerbated anxiety (overall): can reduce
  feeding latency: reduced the feeding latency to wild-type level; also recorded: decreased
Shank3B−/− mice [13]; Shank3B mutants
  food intake back in the home cage: did not rescued
Shank3B−/− mice [13]; Shank3B−/− mice
  exacerbated anxiety (overall): can reduce
  feeding latency: normalized
Oprm1−/− mice [14]; [16]
  ratio of same arm returns (cognitive stereotypies, perseveration): normalized; also recorded: relieved; also recorded: abolished
  spontaneous alternation: restored
Oprm1−/− mice [14]; Example 2, both genotypes and genders, bromide 250 mg/kg
  number of arm entries (index of general locomotor activity): increased
Oprm1−/− mice [14]; Example 2, more in mutants than wild-type, more in females than males
  number of alternate arm returns: increased; also recorded: tendency to increase
Oprm1−/− mice [14]; [24]
  rate of alternate arm returns: increasing the rate
Oprm1−/− mice [14]; [25]
  perseverative same arm returns (cognitive stereotypies): efficiently reduced; also recorded: demonstrated efficacy in reducing; also recorded: dose-dependently decreased; also recorded: significant decrease
Oprm1−/− mice [15]
  number of marbles buried: reduced; also recorded: diminished
